Test results taken from patent US20260365653A1, “IRREVERSIBLE MUTEGFR INHIBITORS” (Bayer Aktiengesellschaft, priority 2022, published 2026).

Experiments:
[1] = molecular target: T1, mutEGFR (D770_N771insSVD) (Homo sapiens, UniProt P00533, DUP768-770); assay: Exon20-Mutant-EGFR (D770_N771insSVD) kinase assay (TR-FRET); type: biochemical; settings: mutEGFR (D770_N771insSVD) kinase assay IC50, Table 2a; D770_N771insSVD; 2 mM ATP
T1 construct: GST-EGFR #3 (SVD between D770 and N771); made in house; host or cells: Sf9 insect cells (baculovirus)
T1 sequence (P00533 with tags, fused parts or gaps DUP768-770): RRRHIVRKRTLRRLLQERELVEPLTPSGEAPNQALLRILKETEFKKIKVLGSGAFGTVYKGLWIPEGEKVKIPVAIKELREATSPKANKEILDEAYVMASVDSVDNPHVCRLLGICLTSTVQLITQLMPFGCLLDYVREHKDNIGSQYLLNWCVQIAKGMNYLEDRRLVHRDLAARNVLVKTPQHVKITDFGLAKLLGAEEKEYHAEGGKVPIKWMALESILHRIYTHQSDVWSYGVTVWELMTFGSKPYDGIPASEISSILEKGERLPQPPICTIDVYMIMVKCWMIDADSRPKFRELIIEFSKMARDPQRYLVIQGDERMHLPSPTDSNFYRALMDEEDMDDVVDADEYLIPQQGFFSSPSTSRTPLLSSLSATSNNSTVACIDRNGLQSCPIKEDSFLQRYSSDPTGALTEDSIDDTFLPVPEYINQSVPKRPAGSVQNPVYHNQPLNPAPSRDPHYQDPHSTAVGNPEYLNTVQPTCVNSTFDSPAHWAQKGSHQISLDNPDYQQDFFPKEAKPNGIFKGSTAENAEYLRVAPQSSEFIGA

[2] = tested on: BA/F3 (insSVD) cells; assay: Ba/F3-EGFR-insSVD cell survival assay (Cell Titer-Glo); type: cell-based; settings: Mus musculus, BaF3, 48 h, Table 3a, cell survival, Cell Titer-Glo, with 10 ng/ml EGF, without IL-3
Outline: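 Ba/F3 cells stably expressing retroviral EGFR-insSVD or insSVD T790M, grown without IL-3 on 10 ng/ml EGF, 4000 cells/well. Compound pinned in, 48 h at 37° C. Viability by CellTiter-Glo luminescence.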

[3] = molecular target: T2, mutEGFR (D770_N771insNPG, T790) (Homo sapiens, UniProt P00533, INS770NPG/T790M); assay: mutEGFR (D770_N771insNPG, T790) kinase assay; type: biochemical; settings: Table 2a, D770_N771insNPG
T2 construct: exact insNPG construct not described; in-house EGFR proteins were N-terminal GST fusions from baculovirus/insect cells (borders R669-A1210 given only for WT, insSVD, insASV)
T2 sequence (P00533 with tags, fused parts or gaps INS770NPG/T790M limits assumed): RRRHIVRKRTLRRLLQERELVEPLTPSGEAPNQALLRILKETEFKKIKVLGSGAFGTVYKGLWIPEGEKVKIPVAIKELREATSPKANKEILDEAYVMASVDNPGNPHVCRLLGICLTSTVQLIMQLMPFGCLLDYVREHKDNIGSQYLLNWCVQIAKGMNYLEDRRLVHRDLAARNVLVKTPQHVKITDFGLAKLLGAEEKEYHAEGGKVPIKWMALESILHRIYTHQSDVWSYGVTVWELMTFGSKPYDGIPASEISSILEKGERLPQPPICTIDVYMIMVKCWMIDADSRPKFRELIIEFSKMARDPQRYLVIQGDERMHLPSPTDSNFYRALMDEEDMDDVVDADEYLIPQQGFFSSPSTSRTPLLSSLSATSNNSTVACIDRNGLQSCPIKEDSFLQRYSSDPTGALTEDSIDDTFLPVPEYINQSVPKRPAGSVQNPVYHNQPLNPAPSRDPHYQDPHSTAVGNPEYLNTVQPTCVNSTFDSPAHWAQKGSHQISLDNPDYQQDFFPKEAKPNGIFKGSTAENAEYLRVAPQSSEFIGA
Source text: The different EGFR proteins used in the biochemical kinase activity inhibition assays were generated inhouse by expression in insect cells using Baculo Virus system and subsequent purification as described in the following paragraphs.
The cDNAs encoding the various protein sequences from human EGFR human (P00533) were optimized for expression in eukaryotic cells and synthesized by the GeneArt Technology at Life Technologies.

| IC50 [1] | IC50 [3] | Compound | IC50 [2] |
| --- | --- | --- | --- |
| 13.4 nM | 50.6 nM | O=C(/C=C/CN1CC(F)(F)C1)N1CCn2nc(-c3ccc(F)cc3)c(-c3ccncc3)c2C1 [Example 84, (2E)-4-(3,3-difluoroazetidin-1-yl)-1-[2-(4-fluorophenyl)-3-(pyridin-4-yl)-6,7-dihydropyrazolo[1,5-a]pyrazin-5(4H)-yl]but-2-en-1-one] | 1230 nM |
| 0.731 nM | 2.43 nM | O=C(C#CCN1CCOCC1)N1CCn2nc(-c3ccc(Cl)cc3F)c(-c3ccncc3)c2C1 [Example 85, 1-[2-(4-chloro-2-fluorophenyl)-3-(pyridin-4-yl)-6,7-dihydropyrazolo[1,5-a]pyrazin-5(4H)-yl]-4-(morpholin-4-yl) but-2-yn-1-one] | 34.6 nM |
| 122 nM | 237 nM | CC(C)(C)OC(=O)NC1(C#CC(=O)N2CCn3nc(-c4ccc(F)cc4)c(-c4ccncc4)c3C2)CC1 [Example 86, tert-butyl (1-{3-[2-(4-fluorophenyl)-3-(pyridin-4-yl)-6,7-dihydropyrazolo[1,5-a]pyrazin-5(4H)-yl]-3-oxoprop-1-yn-1-yl}cyclopropyl) carbamate] | 971 nM |
| 6.06 nM | 8.7 nM | NC1(C#CC(=O)N2CCn3nc(-c4ccc(F)cc4)c(-c4ccncc4)c3C2)CC1 [Example 89, 3-(1-aminocyclopropyl)-1-[2-(4-fluorophenyl)-3-(pyridin-4-yl)-6,7-dihydropyrazolo[1,5-a]pyrazin-5(4H)-yl]prop-2-yn-1-one] | 5060 nM |
| 2.08 nM | 5.34 nM | CC(C)(C)OC(=O)NCC#CC(=O)N1CCn2nc(-c3ccc(F)cc3)c(-c3ccncc3)c2C1 [Example 90, tert-butyl {4-[2-(4-fluorophenyl)-3-(pyridin-4-yl)-6,7-dihydropyrazolo[1,5-a]pyrazin-5(4H)-yl]-4-oxobut-2-yn-1-yl}carbamate] | 166 nM |
| 26.3 nM | 52.8 nM | NCC#CC(=O)N1CCn2nc(-c3ccc(F)cc3)c(-c3ccncc3)c2C1 [Example 91, 4-amino-1-[2-(4-fluorophenyl)-3-(pyridin-4-yl)-6,7-dihydropyrazolo[1,5-a]pyrazin-5(4H)-yl]but-2-yn-1-one] | 1410 nM |
| 24.6 nM | 53.6 nM | C=CC(=O)N1CCn2nc(Nc3ccc(Cl)cc3F)c(-c3ccnc4[nH]cc(C)c34)c2C1 [Example 92, 1-[2-(4-chloro-2-fluoroanilino)-3-(3-methyl-1H-pyrrolo[2,3-b]pyridin-4-yl)-6,7-dihydropyrazolo[1,5-a]pyrazin-5(4H)-yl]prop-2-en-1-one] | 125 nM |
| 213 nM | 403 nM | C=CC(=O)N1CCn2nc(Nc3ccc(C(F)(F)F)cc3)c(-c3ccnc4[nH]cc(C)c34)c2C1 [Example 94, 1-[3-(3-methyl-1H-pyrrolo[2,3-b]pyridin-4-yl)-2-[4-(trifluoromethyl)anilino]-6,7-dihydropyrazolo[1,5-a]pyrazin-5(4H)-yl]prop-2-en-1-one] | 2760 nM |
| 40.6 nM | 99.5 nM | C=CC(=O)N1CCn2nc(Nc3ccc(Cl)cc3F)c(-c3ccncc3)c2C1 [Example 95, 1-[2-(4-chloro-2-fluoroanilino)-3-(pyridin-4-yl)-6,7-dihydropyrazolo[1,5-a]pyrazin-5(4H)-yl]prop-2-en-1-one] | 1210 nM |
| 2030 nM | 7960 nM | C=CC(=O)N1CCn2nc(Nc3ccc(OC)c(F)c3)c(-c3ccncc3)c2C1 [Example 96, 1-[2-(3-fluoro-4-methoxyanilino)-3-(pyridin-4-yl)-6,7-dihydropyrazolo[1,5-a]pyrazin-5(4H)-yl]prop-2-en-1-one] | 7930 nM |
| 626 nM | 3800 nM | C=CC(=O)N1CCn2nc(Nc3ccc(C(F)(F)F)cc3)c(-c3ccncc3)c2C1 [Example 97, 1-[3-(pyridin-4-yl)-2-[4-(trifluoromethyl)anilino]-6,7-dihydropyrazolo[1,5-a]pyrazin-5(4H)-yl]prop-2-en-1-one] | 4360 nM |
| 10.4 nM | 11.6 nM | CN(C)C/C=C/C(=O)N1CCn2nc(-c3ccc(F)cc3)c(-c3ccnc4[nH]ccc34)c2C1 [Example 98, (2E)-4-(dimethylamino)-1-[2-(4-fluorophenyl)-3-(1H-pyrrolo[2,3-b]pyridin-4-yl)-6,7-dihydropyrazolo[1,5-a]pyrazin-5(4H)-yl]but-2-en-1-one] | 209 nM |
| 5.72 nM | 57.1 nM | Cc1ccc(-c2nn3c(c2-c2ccnc4[nH]ccc24)CN(C(=O)/C=C/CN(C)C)CC3)c(F)c1 [Example 99, (2E)-4-(dimethylamino)-1-[2-(2-fluoro-4-methylphenyl)-3-(1H-pyrrolo[2,3-b]pyridin-4-yl)-6,7-dihydropyrazolo[1,5-a]pyrazin-5(4H)-yl]but-2-en-1-one] | 337 nM |
| 19.6 nM | 3.57 nM | C[C@@H]1Cn2nc(-c3cccc(C#N)c3)c(-c3ccncc3)c2CN1C(=O)/C=C/CN(C)C [Example 100, 3-[(6R)-5-[(2E)-4-(dimethylamino)but-2-enoyl]-6-methyl-3-(pyridin-4-yl)-4,5,6,7-tetrahydropyrazolo[1,5-a]pyrazin-2-yl]benzonitrile] | 420 nM |
| 16.8 nM | 3.5 nM | C[C@H]1Cn2nc(-c3cccc(C#N)c3)c(-c3ccncc3)c2CN1C(=O)/C=C/CN(C)C [Example 101, 3-[(6S)-5-[(2E)-4-(dimethylamino)but-2-enoyl]-6-methyl-3-(pyridin-4-yl)-4,5,6,7-tetrahydropyrazolo[1,5-a]pyrazin-2-yl]benzonitrile] | 44.6 nM |
| 4.77 nM | 22.8 nM | C=CC(=O)N1CCn2nc(-c3ccc(C)cc3F)c(-c3ccnc4[nH]ccc34)c2C1 [Example 102, 1-[2-(2-fluoro-4-methylphenyl)-3-(1H-pyrrolo[2,3-b]pyridin-4-yl)-6,7-dihydropyrazolo[1,5-a]pyrazin-5(4H)-yl]prop-2-en-1-one] | 49.8 nM |
| 3.7 nM | 25.2 nM | CN(C)C/C=C/C(=O)N1CCn2nc(-c3ccc(Cl)cc3F)c(-c3ccnc4[nH]ccc34)c2C1 [Example 103, (2E)-1-[2-(4-chloro-2-fluorophenyl)-3-(1H-pyrrolo[2,3-b]pyridin-4-yl)-6,7-dihydropyrazolo[1,5-a]pyrazin-5(4H)-yl]-4-(dimethylamino)but-2-en-1-one] | 122 nM |
| 1.66 nM | 9.09 nM | C=CC(=O)N1CCn2nc(-c3ccc(Cl)cc3F)c(-c3ccnc4[nH]ccc34)c2C1 [Example 104, 1-[2-(4-chloro-2-fluorophenyl)-3-(1H-pyrrolo[2,3-b]pyridin-4-yl)-6,7-dihydropyrazolo[1,5-a]pyrazin-5(4H)-yl]prop-2-en-1-one] | 32 nM |
| 1.48 nM | 1.57 nM | C=CC(=O)N1CCn2nc(-c3ccc(F)c4ccoc34)c(-c3ccncc3)c2C1 [Example 105, 1-[2-(4-fluoro-1-benzofuran-7-yl)-3-(pyridin-4-yl)-6,7-dihydropyrazolo[1,5-a]pyrazin-5(4H)-yl]prop-2-en-1-one] | 233 nM |
| 0.528 nM | 0.546 nM | C=CC(=O)N1CCn2nc(-c3ccc(F)c4ccccc34)c(-c3ccncc3)c2C1 [Example 106, 1-[2-(4-fluoronaphthalen-1-yl)-3-(pyridin-4-yl)-6,7-dihydropyrazolo[1,5-a]pyrazin-5(4H)-yl]prop-2-en-1-one] | 214 nM |
| 0.844 nM | 0.564 nM | C=CC(=O)N1CCn2nc(-c3cccc4ccoc34)c(-c3ccncc3)c2C1 [Example 107] | 41.4 nM |
| 0.351 nM | 0.425 nM | C=CC(=O)N1CCn2nc(-c3ccc4c(C)c[nH]c4c3)c(-c3ccncc3)c2C1 [Example 108, 1-[2-(3-methyl-1H-indol-6-yl)-3-(pyridin-4-yl)-6,7-dihydropyrazolo[1,5-a]pyrazin-5(4H)-yl]prop-2-en-1-one] | 33.3 nM |
| 0.111 nM | 0.149 nM | C=CC(=O)N1CCn2nc(-c3cc4ccccc4cc3F)c(-c3ccncc3)c2C1 [Example 109, 1-[2-(3-fluoronaphthalen-2-yl)-3-(pyridin-4-yl)-6,7-dihydropyrazolo[1,5-a]pyrazin-5(4H)-yl]prop-2-en-1-one] | 42 nM |
| 0.75 nM | 1.93 nM | C=CC(=O)N1CCn2nc(-c3ccc(C)cc3F)c(-c3ccncc3)c2C1 [Example 110, 1-[2-(2-fluoro-4-methylphenyl)-3-(pyridin-4-yl)-6,7-dihydropyrazolo[1,5-a]pyrazin-5(4H)-yl]prop-2-en-1-one] | 33.2 nM |
| 0.13 nM | 0.259 nM | C=CC(=O)N1CCn2nc(-c3ccc4ccccc4c3F)c(-c3ccncc3)c2C1 [Example 111, 1-[2-(1-fluoronaphthalen-2-yl)-3-(pyridin-4-yl)-6,7-dihydropyrazolo[1,5-a]pyrazin-5(4H)-yl]prop-2-en-1-one] | 27.5 nM |
